# Experimental data: PMC9403976, “Elucidating the path to Plasmodium prolyl-tRNA synthetase inhibitors that overcome halofuginone resistance” (Nature Communications, 2022)
# Values joined by “and” are separate entries in the source; they are usually repeats but may differ in a detail not shown here. Equal entries are not always repeated. Where two headings read alike, the source gives them in different places.
# What was measured:
# PfcProRS = target: T1, PfcProRS (Plasmodium falciparum, UniProt Q8I5R7); assay type: binding; conditions: for dose-response signal (normalized), SI Fig 8: single replicates
# T1 construct: made in house; host or cells: E. coli SoluBL-21
# HsProRS = HsProRS (Homo sapiens, UniProt P07814); test: TR-FRET ligand displacement assay with tracer MAT379 (CoraFluor-1-Halo and anti-His6 antibody formats); assay type: binding; parameters: made in house; host or cells: E. coli SoluBL-21; conditions: for Kd: 250 nM MAT379; for TR-FRET dose-response, normalized signal (SI Fig 11): individual replicates
# HsProRS, sequence (P07814 996-1512): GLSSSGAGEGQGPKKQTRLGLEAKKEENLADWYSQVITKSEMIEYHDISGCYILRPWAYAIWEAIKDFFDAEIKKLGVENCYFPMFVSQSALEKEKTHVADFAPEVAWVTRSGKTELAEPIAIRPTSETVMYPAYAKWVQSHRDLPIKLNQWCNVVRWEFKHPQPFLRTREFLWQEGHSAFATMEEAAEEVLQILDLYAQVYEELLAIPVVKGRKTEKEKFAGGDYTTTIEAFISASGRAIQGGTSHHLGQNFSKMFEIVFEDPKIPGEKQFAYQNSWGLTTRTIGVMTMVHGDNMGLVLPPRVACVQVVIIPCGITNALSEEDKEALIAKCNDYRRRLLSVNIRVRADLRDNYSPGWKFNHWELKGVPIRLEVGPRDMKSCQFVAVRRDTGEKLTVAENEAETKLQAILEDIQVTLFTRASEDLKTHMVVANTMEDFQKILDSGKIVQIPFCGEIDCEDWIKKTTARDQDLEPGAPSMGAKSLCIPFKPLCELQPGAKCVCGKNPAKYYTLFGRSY
# T1 sequence (Q8I5R7 249-746): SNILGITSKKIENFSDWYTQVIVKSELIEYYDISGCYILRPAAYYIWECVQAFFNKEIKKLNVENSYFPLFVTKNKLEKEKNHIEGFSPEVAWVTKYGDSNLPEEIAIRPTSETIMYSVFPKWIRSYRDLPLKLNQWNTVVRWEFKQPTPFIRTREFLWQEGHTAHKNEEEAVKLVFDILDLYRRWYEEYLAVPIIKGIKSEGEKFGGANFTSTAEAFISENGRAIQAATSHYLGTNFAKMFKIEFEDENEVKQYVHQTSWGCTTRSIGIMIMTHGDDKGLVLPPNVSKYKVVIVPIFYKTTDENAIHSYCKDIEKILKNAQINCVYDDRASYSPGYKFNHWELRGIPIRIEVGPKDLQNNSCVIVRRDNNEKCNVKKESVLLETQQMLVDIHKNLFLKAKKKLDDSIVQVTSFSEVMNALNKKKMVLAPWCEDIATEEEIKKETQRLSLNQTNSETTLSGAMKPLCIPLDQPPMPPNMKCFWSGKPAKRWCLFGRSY
smiles,measurement,setting,value
CC(C)(C)OC(=O)N[C@H]1CC[C@@H](C(=O)Nc2nccnc2C(=O)NC2Cc3ccccc3C2)CC1 [compound 6],"dose-response signal (normalized), SI Fig 8",PfcProRS; Log[inhibitor] (M) -8.000,8.78E-01 and 9.57E-01 and 8.94E-01
same,"dose-response signal (normalized), SI Fig 8",PfcProRS; Log[inhibitor] (M) -8.301,1.00E+00 and 9.97E-01 and 9.67E-01
same,"dose-response signal (normalized), SI Fig 8",PfcProRS; Log[inhibitor] (M) -8.602,1.06E+00 and 9.31E-01 and 1.01E+00
same,"dose-response signal (normalized), SI Fig 8",PfcProRS; Log[inhibitor] (M) -9.000,9.58E-01 and 9.81E-01 and 9.50E-01
same,"dose-response signal (normalized), SI Fig 8",PfcProRS; Log[inhibitor] (M) -9.301,1.01E+00 and 1.02E+00 and 9.51E-01
same,PfcProRS -- best Kd,"PfcProRS; SI Fig 16a, values on -log scale",7.580
same,Kd,"HsProRS; HsProRS (KD [nM]) + proline, 100 μM proline",82.7 nM
same,Kd,"HsProRS; HsProRS (KD [nM]) −, absence of substrates",56.8 nM
same,"normalized TR-FRET ligand displacement signal, dose-response replicates (SI Fig 6)",HsProRS; Log[inhibitor] (M) -5.000,-9.02E-03 and -3.85E-02 and -4.81E-02
same,"TR-FRET dose-response, normalized signal (SI Fig 11)",HsProRS; Log[inhibitor] (M) -5.000,-2.98E-03 and 2.00E-02 and -3.48E-02
same,"normalized TR-FRET ligand displacement signal, dose-response replicates (SI Fig 6)",HsProRS; Log[inhibitor] (M) -5.301,1.39E-03 and -1.19E-02 and 6.50E-02
same,"TR-FRET dose-response, normalized signal (SI Fig 11)",HsProRS; Log[inhibitor] (M) -5.301,-9.84E-03 and -1.64E-02 and -3.17E-02
same,"normalized TR-FRET ligand displacement signal, dose-response replicates (SI Fig 6)",HsProRS; Log[inhibitor] (M) -5.601,3.06E-03 and 6.60E-02 and -6.88E-02
same,"TR-FRET dose-response, normalized signal (SI Fig 11)",HsProRS; Log[inhibitor] (M) -5.601,1.87E-02 and 1.41E-03 and 1.94E-02
same,"normalized TR-FRET ligand displacement signal, dose-response replicates (SI Fig 6)",HsProRS; Log[inhibitor] (M) -5.904,1.31E-01 and 8.92E-02 and 1.65E-02
same,"TR-FRET dose-response, normalized signal (SI Fig 11)",HsProRS; Log[inhibitor] (M) -5.904,4.76E-02 and 6.37E-02 and 6.71E-02
same,"normalized TR-FRET ligand displacement signal, dose-response replicates (SI Fig 6)",HsProRS; Log[inhibitor] (M) -6.208,8.21E-02 and 1.14E-01 and 9.74E-02
same,"TR-FRET dose-response, normalized signal (SI Fig 11)",HsProRS; Log[inhibitor] (M) -6.208,1.11E-01 and 9.52E-02 and 8.68E-02
same,"normalized TR-FRET ligand displacement signal, dose-response replicates (SI Fig 6)",HsProRS; Log[inhibitor] (M) -6.509,3.32E-01 and 2.13E-01 and 2.09E-01
same,"TR-FRET dose-response, normalized signal (SI Fig 11)",HsProRS; Log[inhibitor] (M) -6.509,1.70E-01 and 1.88E-01 and 1.94E-01
same,"normalized TR-FRET ligand displacement signal, dose-response replicates (SI Fig 6)",HsProRS; Log[inhibitor] (M) -6.796,3.90E-01 and 3.58E-01 and 4.40E-01
same,"TR-FRET dose-response, normalized signal (SI Fig 11)",HsProRS; Log[inhibitor] (M) -6.796,3.16E-01 and 2.94E-01 and 3.43E-01
same,"normalized TR-FRET ligand displacement signal, dose-response replicates (SI Fig 6)",HsProRS; Log[inhibitor] (M) -7.108,6.29E-01 and 5.81E-01 and 6.23E-01
same,"TR-FRET dose-response, normalized signal (SI Fig 11)",HsProRS; Log[inhibitor] (M) -7.108,5.24E-01 and 5.07E-01 and 4.16E-01
same,"normalized TR-FRET ligand displacement signal, dose-response replicates (SI Fig 6)",HsProRS; Log[inhibitor] (M) -7.409,7.27E-01 and 7.69E-01 and 8.30E-01
same,"TR-FRET dose-response, normalized signal (SI Fig 11)",HsProRS; Log[inhibitor] (M) -7.409,6.04E-01 and 6.96E-01 and 6.63E-01
same,"normalized TR-FRET ligand displacement signal, dose-response replicates (SI Fig 6)",HsProRS; Log[inhibitor] (M) -7.710,8.52E-01 and 7.93E-01 and 9.04E-01
same,"TR-FRET dose-response, normalized signal (SI Fig 11)",HsProRS; Log[inhibitor] (M) -7.710,7.36E-01 and 7.44E-01 and 7.53E-01
same,"normalized TR-FRET ligand displacement signal, dose-response replicates (SI Fig 6)",HsProRS; Log[inhibitor] (M) -8.000,8.26E-01 and 9.38E-01 and 9.73E-01
same,"TR-FRET dose-response, normalized signal (SI Fig 11)",HsProRS; Log[inhibitor] (M) -8.000,8.98E-01 and 8.12E-01 and 7.76E-01
same,"normalized TR-FRET ligand displacement signal, dose-response replicates (SI Fig 6)",HsProRS; Log[inhibitor] (M) -8.301,9.79E-01 and 9.47E-01 and 1.01E+00
same,"TR-FRET dose-response, normalized signal (SI Fig 11)",HsProRS; Log[inhibitor] (M) -8.301,8.89E-01 and 8.40E-01 and 9.15E-01
same,"normalized TR-FRET ligand displacement signal, dose-response replicates (SI Fig 6)",HsProRS; Log[inhibitor] (M) -8.602,9.42E-01 and 9.96E-01 and 9.03E-01
same,"TR-FRET dose-response, normalized signal (SI Fig 11)",HsProRS; Log[inhibitor] (M) -8.602,9.56E-01 and 8.65E-01 and 9.25E-01
same,"normalized TR-FRET ligand displacement signal, dose-response replicates (SI Fig 6)",HsProRS; Log[inhibitor] (M) -9.000,9.97E-01 and 9.50E-01 and 8.98E-01
same,"TR-FRET dose-response, normalized signal (SI Fig 11)",HsProRS; Log[inhibitor] (M) -9.000,9.29E-01 and 9.09E-01 and 9.22E-01
same,"normalized TR-FRET ligand displacement signal, dose-response replicates (SI Fig 6)",HsProRS; Log[inhibitor] (M) -9.301,1.05E+00 and 9.90E-01 and 1.06E+00
same,"TR-FRET dose-response, normalized signal (SI Fig 11)",HsProRS; Log[inhibitor] (M) -9.301,9.30E-01 and 9.49E-01 and 9.75E-01
